Laboratory results as given in the NIST ThermoML archive (doi:10.1021/je049609w).

Experiments:
[1] = xn = mol fraction of the nth substance listed; conditions: 101 kPa, Liquid
[2] = refractive index (Na D-line) (dimensionless); xn = mol fraction of the nth substance listed; conditions: 101 kPa, Liquid

C1COCCO1 [1,4-dioxane] + CCOC(C)=O
Conditions | mass density, 298.15 K [kg/m3] | mass density, 303.15 K [kg/m3] | mass density, 308.15 K [kg/m3] | refractive index, 298.15 K | refractive index, 303.15 K | refractive index, 308.15 K | speed of sound, 298.15 K [m/s] | viscosity, 298.15 K [mPa·s] | viscosity, 303.15 K [mPa·s] | viscosity, 308.15 K [mPa·s]
[1], x1 = 0.1004 | 906.2 | 900 | 893.9 | – | – | – | 1174 | 0.467 | 0.442 | 0.417
[1], x1 = 0.2001 | 918.8 | 912.7 | 906.6 | – | – | – | 1193 | 0.505 | 0.478 | 0.45
[1], x1 = 0.3021 | 931.9 | 925.8 | 919.8 | – | – | – | 1212 | 0.543 | 0.513 | 0.482
[1], x1 = 0.4002 | 944.7 | 938.7 | 932.7 | – | – | – | 1231 | 0.595 | 0.56 | 0.525
[1], x1 = 0.5071 | 958.7 | 952.8 | 946.9 | – | – | – | 1250 | 0.646 | 0.607 | 0.568
[1], x1 = 0.6001 | 971.1 | 965.2 | 959.5 | – | – | – | 1269 | 0.707 | 0.671 | 0.616
[1], x1 = 0.6972 | 984.4 | 978.6 | 972.8 | – | – | – | 1288 | 0.791 | 0.735 | 0.684
[1], x1 = 0.799 | 998.7 | 993 | 987.2 | – | – | – | 1307 | 0.908 | 0.843 | 0.778
[1], x1 = 0.8991 | 1013.3 | 1007.7 | 1001.9 | – | – | – | 1327 | 1.029 | 0.951 | 0.873
[1], x1 = 1 | 1028.6 | 1022.9 | 1017.2 | – | – | – | 1345 | 1.195 | 1.095 | 1.008
[2], x1 = 0.1004 | – | – | – | 1.3753 | 1.3716 | 1.368 | – | – | – | –
[2], x1 = 0.2001 | – | – | – | 1.3798 | 1.3764 | 1.373 | – | – | – | –
[2], x1 = 0.3021 | – | – | – | 1.3843 | 1.3813 | 1.3782 | – | – | – | –
[2], x1 = 0.4002 | – | – | – | 1.389 | 1.3862 | 1.3834 | – | – | – | –
[2], x1 = 0.5071 | – | – | – | 1.3942 | 1.3915 | 1.3889 | – | – | – | –
[2], x1 = 0.6001 | – | – | – | 1.3991 | 1.3964 | 1.3938 | – | – | – | –
[2], x1 = 0.6972 | – | – | – | 1.4041 | 1.4015 | 1.3989 | – | – | – | –
[2], x1 = 0.799 | – | – | – | 1.4094 | 1.4069 | 1.4044 | – | – | – | –
[2], x1 = 0.8991 | – | – | – | 1.4148 | 1.4122 | 1.4097 | – | – | – | –
[2], x1 = 1 | – | – | – | 1.4203 | 1.4164 | 1.4145 | – | – | – | –

C1COCCO1 [1,4-dioxane] + ClC=C(Cl)Cl
x1 = 1
Conditions | mass density, 298.15 K [kg/m3] | mass density, 303.15 K [kg/m3] | mass density, 308.15 K [kg/m3] | refractive index, 298.15 K | refractive index, 303.15 K | refractive index, 308.15 K | speed of sound, 298.15 K [m/s] | viscosity, 298.15 K [mPa·s] | viscosity, 303.15 K [mPa·s] | viscosity, 308.15 K [mPa·s]
[1] | 1028.6 | 1022.9 | 1017.2 | – | – | – | 1345 | 1.196 | 1.102 | 1.008
[2] | – | – | – | 1.4203 | 1.4164 | 1.4145 | – | – | – | –

C1COCCO1 [1,4-dioxane] + Clc1ccccc1Cl
x1 = 1
Conditions | mass density, 298.15 K [kg/m3] | mass density, 303.15 K [kg/m3] | mass density, 308.15 K [kg/m3] | refractive index, 298.15 K | refractive index, 303.15 K | refractive index, 308.15 K | speed of sound, 298.15 K [m/s] | viscosity, 298.15 K [mPa·s] | viscosity, 303.15 K [mPa·s] | viscosity, 308.15 K [mPa·s]
[1] | 1028.6 | 1022.9 | 1017.2 | – | – | – | 1345 | 1.196 | 1.102 | 1.008
[2] | – | – | – | 1.4203 | 1.4164 | 1.4145 | – | – | – | –

C1COCCO1 [1,4-dioxane] + OCCCl
x1 = 1
Conditions | mass density, 298.15 K [kg/m3] | mass density, 303.15 K [kg/m3] | mass density, 308.15 K [kg/m3] | refractive index, 298.15 K | refractive index, 303.15 K | refractive index, 308.15 K | speed of sound, 298.15 K [m/s] | viscosity, 298.15 K [mPa·s] | viscosity, 303.15 K [mPa·s] | viscosity, 308.15 K [mPa·s]
[1] | 1028.6 | 1022.9 | 1017.2 | – | – | – | 1345 | 1.196 | 1.095 | 1.008
[2] | – | – | – | 1.4203 | 1.4164 | 1.4145 | – | – | – | –

OCCCl [1-chloro-2-hydroxyethane] + C1COCCO1
Conditions | mass density, 298.15 K [kg/m3] | mass density, 303.15 K [kg/m3] | mass density, 308.15 K [kg/m3] | refractive index, 298.15 K | refractive index, 303.15 K | refractive index, 308.15 K | speed of sound, 298.15 K [m/s] | viscosity, 298.15 K [mPa·s] | viscosity, 303.15 K [mPa·s] | viscosity, 308.15 K [mPa·s]
[1], x2 = 0 | 1200.9 | 1192.5 | 1187.1 | – | – | – | 1358 | 3.104 | 2.669 | 2.347
[1], x2 = 0.1024 | 1177.7 | 1171.1 | 1165.1 | – | – | – | 1357 | 2.755 | 2.457 | 2.16
[1], x2 = 0.2001 | 1157 | 1151.1 | 1145.2 | – | – | – | 1356 | 2.431 | 2.17 | 1.909
[1], x2 = 0.3035 | 1136.7 | 1131.1 | 1125.5 | – | – | – | 1354 | 2.088 | 1.877 | 1.666
[1], x2 = 0.4041 | 1118.2 | 1112.7 | 1107.2 | – | – | – | 1353 | 1.858 | 1.682 | 1.505
[1], x2 = 0.5047 | 1100.8 | 1095.4 | 1090 | – | – | – | 1352 | 1.649 | 1.496 | 1.344
[1], x2 = 0.6031 | 1084.8 | 1079.4 | 1073.9 | – | – | – | 1350 | 1.505 | 1.376 | 1.248
[1], x2 = 0.7015 | 1069.5 | 1064.1 | 1058.7 | – | – | – | 1349 | 1.377 | 1.265 | 1.152
[1], x2 = 0.8009 | 1054.9 | 1049.5 | 1044.1 | – | – | – | 1347 | 1.304 | 1.199 | 1.095
[1], x2 = 0.9003 | 1041.6 | 1030.9 | 1030.2 | – | – | – | 1346 | 1.233 | 1.136 | 1.038
[2], x2 = 0 | – | – | – | 1.4411 | 1.438 | 1.4326 | – | – | – | –
[2], x2 = 0.1024 | – | – | – | 1.4389 | 1.4356 | 1.4324 | – | – | – | –
[2], x2 = 0.2001 | – | – | – | 1.4363 | 1.4337 | 1.431 | – | – | – | –
[2], x2 = 0.3035 | – | – | – | 1.4337 | 1.4314 | 1.4292 | – | – | – | –
[2], x2 = 0.4041 | – | – | – | 1.4314 | 1.4291 | 1.4268 | – | – | – | –
[2], x2 = 0.5047 | – | – | – | 1.429 | 1.4269 | 1.4247 | – | – | – | –
[2], x2 = 0.6031 | – | – | – | 1.4273 | 1.4249 | 1.4225 | – | – | – | –
[2], x2 = 0.7015 | – | – | – | 1.4256 | 1.4231 | 1.4205 | – | – | – | –
[2], x2 = 0.8009 | – | – | – | 1.4235 | 1.4211 | 1.4187 | – | – | – | –
[2], x2 = 0.9003 | – | – | – | 1.4214 | 1.4191 | 1.4168 | – | – | – | –
